Experimental findings from article PMC5603865, “Synthesis, In-Vitro Activity and Metabolic Properties of Quinocetone and Structurally Similar Compounds” (Iranian Journal of Pharmaceutical Research : IJPR, 2017) are described below.

The IC50 is the concentration at which inhibition is half-maximal. Low values mean higher potency, high ones lower potency. As usually defined, the MIC is the lowest concentration that inhibits growth of the organism.

In brackets after ≈: the same amount, converted by molar mass. Where two headings read alike, the source gives them in different places.

The test system of one experiment is Aeromonas hydrophila. Put plainly: In-vitro antibacterial activity, MIC by broth dilution. To be noted: broth dilution, 24 h; for MIC: Aeromonas hydrophila, read-out: MIC values Aeromonas hydrophila. Format: cell-based. The protocol: (§1) All test compounds were dissolved in dimethyl sulfoxide (DMSO, Sigma, USA) and then diluted in Dulbecco’s modified Eagle’s medium (DMEM, Gibco, USA) at desired concentrations for cell proliferation analyses or diluted in nutrient broth medium for antimicrobial susceptibility testing respectively. The final concentration of DMSO in the DMEM culture medium was under 0.1% (v:v).
(§2) The preliminary antibacterial activities were obtained for selected compounds against various bacteria, namely: Staphyloccocus aureus ATCC25923 (Gram-positive bacteria), Clostridium perfringen CVCC52,8604 (anaerobes bacteria), Salmonella pullorum (Gram-negative bacteria), Escherichia coli ATCC25922 (Gram negative bacteria) and Aeromonas hydrophila (Gram-negative bacteria) were used in the study. Each strain was cultured in appropriate broth medium. Clostridium perfringen was incubated in an anaerobic chamber. The minimum inhibitory concentration (MIC) for each test compound was estimated using the broth dilution method. The MIC’s was determined for each strain/compound pairs that presented antimicrobial activity. The method was modified from Mohapatra›s methods ([14], [15]). Cell suspensions were prepared in 2 mL of liquid medium with concentrations of various tests of compounds in 15 mL culture tubes by inoculation with 100 μL of 10^6 cfu/mL from each stock. The cultures were incubated at 28 °C or 37 °C for 24 h. Tubes showing no visible turbidity represented the MIC, and subsequently, were inoculated on the right side of the 9cm sterile nutrient agar plates without various test compounds and incubated for 24 h (Clostridium perfringen was incubated in an anaerobic chamber.). The least concentration, at which no growth was observed, represented the minimum bactericidal concentration (MBC) ([16]).
(In general: Dilution methods test growth across graded concentrations, often in twofold steps.)

Experiment [1] deals with Escherichia coli ATCC25922. The description is as above. Format: cell-based. To be noted: for MIC: Escherichia coli, read-out: MIC values Escherichia coli ATCC25922. Here is the method: as §1, §2
For the next experiment, the system named is Salmonella pullorum. The experiment is described as above. Format: cell-based. To be noted: 24 h; for MIC: Salmonella enterica, PULLORUM
Here is the method: as §1, §2

Experiment [2] relates to Staphyloccocus aureus ATCC25923. The experiment is described as above. To be noted: 24 h; for MIC: read-out: MIC values Staphyloccocus aureus ATCC25923. Format: cell-based. The protocol:
as §1, §2

In experiment [3] the test system is Clostridium perfringen CVCC52,8604. Put plainly: In-vitro antibacterial activity, MIC by broth dilution (anaerobic chamber). Format: cell-based. To be noted: 24 h; for MIC: Clostridium. The protocol:
as §1, §2

A further experiment has as its system HepG2 cells. Put plainly: In-vitro cytotoxicity, MTT cell proliferation assay. Format: cell-based, human. Conditions: 24 h incubation, concentration reducing viable cells by 50%. Here is the method: as §1
(§3) HepG2 and normal human Chang liver cells were obtained from the Institute of Biochemistry and Cell Biology, Shanghai Institutes for Biological Sciences, Chinese Academy of Sciences (Shanghai, China). HepG2 and normal human Chang liver cells were cultured at 37˚Cwith 5% CO2 in DMEM supplemented with 2% L-glutamine, 10% fetal bovine serum (Gibco, USA), 100 U/mL penicillin and 100 […] (Gibco, USA).
(§4) The methodology for evaluating the cytotoxicity inhibitory activity of various test compounds towards cell proliferation has been described previously ([11], [17]). Cell proliferation inhibitory analyses were carried out using the 3-(4,5-dimethylthiazole-2-yl)-2,5-diphenyl tetrazolium bromide (MTT, Sigma, USA) assay. Briefly, cancers HepG2 and normal human Chang liver cells were harvested and resuspended in fresh growth medium. A 100 μL cell suspension (5 × 10^4 cells/mL) was aliquoted into each well of a 96-well culture plate. After 12 h incubation, the medium was replaced with fresh medium containing various concentrations of test compounds. The cells were then incubated for another 24 h. At the end of exposure, 10 μL of MTT solution (5 mg/mL) was added, and the cells were incubated for 4 h at 37 °C. The cells were treated with 100 μL DMSO, and absorbance was recorded at 570 nm using a microplate ELISA reader (ELX800, Bio-Tek, USA). All experiments were performed at least thrice, and data were presented as the mean of sixplicate wells ± standard deviation (SD). Cell inhibition was calculated as follows:
(§5) (OD of control group − OD of experimental group) / (OD of control group − OD of blank group) ×100%. The IC50 value for a compound was calculated using SPSS.
Background: Tetrazolium assays rely on reduction of a dye to a coloured formazan, in cell work by metabolically active cells.

The test system of experiment [4] is normal human Chang liver cells. The description is as above. Conditions: 24 h incubation, concentration reducing viable cells by 50%. Format: cell-based. The protocol: as §1, §3, §4, §5
Experiment [5] relates to Gram-positive and Gram-negative bacteria. Put plainly: Antibacterial activity class based on the MIC results. Format: cell-based. The protocol:
as §2
In this study, activity of quinoxaline-1, 4-dioxides and their deoxygenations was tested against selected Gram-negative bacteria (Escherichia coli, Salmonella pullorum and Aeromonas hydrophila), Gram-positive bacteria (Staphyloccocus aureus and Clostridium perfringen). The in-vitro antibacterial activity was based on the MIC results: Strong antibacterial activity, if MIC is less than 50 μg/mL; Moderate, if MIC is in between 50 and 250 μg/mL; No activity, if MIC is more than 500 μg/mL.

Setting [6] is: ATCC25922, broth dilution, 24 h.
Setting [7] is: Homo sapiens, Chang liver, 24 h.

With “2-(3-phenyl-2-propenyl) -3-methylquinoxaline [Compound 5a]”, in the experiment on Aeromonas hydrophila, the “MIC values Aeromonas hydrophila” value was >500 µg/mL. Besides, in experiment [1] (broth dilution, 24 h), the “MIC values Escherichia coli ATCC25922” value was >500 µg/mL. Further, the “MIC values Salmonella pullorum” value against Salmonella pullorum is >500 µg/mL. The “MIC values Staphyloccocus aureus ATCC25923” value in experiment [2] (broth dilution) was >500 µg/mL. In experiment [3], the “MIC values Clostridium perfringen” value was >500 µg/mL. Also, the IC50 in the experiment with HepG2 cells is 451 ± 11.1 µM; in experiment [4], 532 ± 7.66 µM.
In the case of `CC(=O)c1c(C)[n+]([O-])c2ccccc2[n+]1[O-]` [Compound 2, 2-acetyl-3-methylquinoxaline-1,4-dioxide], the MIC in the experiment with Aeromonas hydrophila amounted to 17.4 µg/mL (≈ 79.9 µM); in experiment [1] (setting [6]), 4.36 µg/mL (≈ 20 µM); with Salmonella pullorum, 17.4 µg/mL (≈ 79.9 µM); in experiment [2] (broth dilution), 17.4 µg/mL (≈ 79.9 µM); in experiment [3], 8.72 µg/mL (≈ 40 µM). Further, the IC50 was 288 ± 9.74 µM in the experiment on HepG2 cells (Homo sapiens, HepG2, 24 h) and 263 ± 3.11 µM in experiment [4] (setting [7]). Moreover, the “antibacterial activity against Gram-positive and Gram-negative bacteria” value (shortened to “antibacterial activity”) in experiment [5] is “strong or moderate activity”.
Turning to `Cc1c(C(=O)/C=C/c2cccc(O)c2)[n+]([O-])c2ccccc2[n+]1[O-]` [Compound 3b], the MIC in the experiment with Aeromonas hydrophila is 206 µg/mL (≈ 639 µM); in experiment [1] (setting [6]), 103 µg/mL (≈ 320 µM); with Salmonella pullorum, 25.8 µg/mL (≈ 79.9 µM); in experiment [2] (broth dilution) it was 12.9 µg/mL (≈ 40 µM); in experiment [3], 51.5 µg/mL (≈ 160 µM). The IC50 came out at 30.5 ± 1.3 µM with HepG2 cells; 30 µM with HepG2 cells (Homo sapiens, HepG2, 24 h); 68 ± 2.9 µM in experiment [4]; 68 µM in experiment [4] (setting [7]). Moreover, in experiment [5], the “antibacterial activity” value is reported as “strong or moderate activity”.
Consider `Cc1c(C(=O)/C=C/c2ccccc2O)[n+]([O-])c2ccccc2[n+]1[O-]` [Compound 3c], for which the MIC is 103 µg/mL (≈ 320 µM) in the experiment on Aeromonas hydrophila; 103 µg/mL (≈ 320 µM) in experiment [1] (setting [6]); 103 µg/mL (≈ 320 µM) in the experiment with Salmonella pullorum; 25.8 µg/mL (≈ 79.9 µM) in experiment [2]; 25.8 µg/mL (≈ 79.9 µM) in experiment [3]. The IC50 came to 102 ± 4.13 µM with HepG2 cells; 102 µM in the experiment with HepG2 cells (Homo sapiens, HepG2, 24 h); 192 ± 10.3 µM in experiment [4] (setting [7]). Further, the “antibacterial activity” value in experiment [5] is listed as “strong or moderate activity”.
For the compound `Cc1c(C(=O)/C=C/c2cccc([N+](=O)[O-])c2)[n+]([O-])c2ccccc2[n+]1[O-]` [Compound 3d], the MIC in the experiment on Aeromonas hydrophila was 449 µg/mL (≈ 1280 µM); in experiment [1] (setting [6]), > 500 µg/mL; against Salmonella pullorum it was 56.2 µg/mL (≈ 160 µM); in experiment [2] (broth dilution), 449 µg/mL (≈ 1280 µM); in experiment [3] it was > 500 µg/mL. Further, the IC50 in the experiment on HepG2 cells (Homo sapiens, HepG2, 24 h) came out at 380 ± 10.6 µM; in experiment [4] (setting [7]), 411 ± 17.1 µM. The “antibacterial activity” value in experiment [5] was “little or no activity”.
Consider `Cc1c(C(=O)/C=C/c2ccc([N+](=O)[O-])cc2)[n+]([O-])c2ccccc2[n+]1[O-]` [Compound 3e], for which the MIC with Aeromonas hydrophila turned out to be 112 µg/mL (≈ 320 µM); in experiment [1] (ATCC25922, 24 h) it was 449 µg/mL (≈ 1280 µM); in the experiment on Salmonella pullorum, 225 µg/mL (≈ 639 µM); in experiment [2], 449 µg/mL (≈ 1280 µM); in experiment [3] it was 449 µg/mL (≈ 1280 µM). Further, the half-maximal inhibitory concentration (IC50) is 449 ± 19.4 µM with HepG2 cells (Homo sapiens, HepG2, 24 h) and 536 ± 22.9 µM in experiment [4] (setting [7]). Besides, in experiment [5], the “antibacterial activity” value is “little or no activity”.
Regarding `COc1ccc(/C=C/C(=O)c2c(C)[n+]([O-])c3ccccc3[n+]2[O-])cc1` [Compound 3f], the MIC in the experiment on Aeromonas hydrophila is > 500 µg/mL; in experiment [1] (setting [6]), > 500 µg/mL; with Salmonella pullorum it was > 500 µg/mL; in experiment [2] (broth dilution) it was 13.4 µg/mL (≈ 40 µM); in experiment [3], 26.9 µg/mL (≈ 79.9 µM). Moreover, the IC50 with HepG2 cells is 99.7 ± 2.97 µM; in the experiment with HepG2 cells (Homo sapiens, HepG2, 24 h) it was 99 µM; in experiment [4], 86.9 ± 6.3 µM; in experiment [4] (setting [7]), 87 µM. Moreover, the “antibacterial activity” value in experiment [5] is reported as “little or no activity”.
In the case of `Cc1nc2ccccc2nc1C(=O)/C=C/c1cccc(O)c1` [Compound 5b], the MIC in the experiment with Aeromonas hydrophila is 371 µg/mL (≈ 1280 µM); in experiment [1] (setting [6]) it was > 500 µg/mL; in the experiment with Salmonella pullorum, > 500 µg/mL; in experiment [2] (broth dilution), > 500 µg/mL; in experiment [3], > 500 µg/mL. For the same compound, the IC50 in the experiment on HepG2 cells (Homo sapiens, HepG2, 24 h) is 526 ± 20.9 µM; in experiment [4] (setting [7]), 463 ± 9.91 µM.
